According to US9856264B2, “Isoquinolinesulfonyl derivative as RHO kinase inhibitor” (MEDSHINE DISCOVERY INC., priority 2014, dated 2018):

Molecular target: ROCK kinase
Experiment: In vitro ROCK kinase inhibition activity evaluation (33P-ATP filter-binding)
Type: biochemical
Parameters: key to ROCK inhibition activity: 1 μM ≦ + < 5 μM; 0.1 μM ≦ ++ < 1 μM; +++ < 0.1 μM; −− N/A
Conditions: 1 nM ROCK kinase, 20 μM Long S6 Kinase substrate peptide, 2 h room temperature
Method: Biological Activity Experiment: In Vitro ROCK Kinase Inhibition Activity Evaluation
Experimental Objective: Test ROCK Inhibition IC50 Value of Invented Compounds
Buffer solution: 20 mM Hepes (pH 7.5), 10 mM MgCl2, 1 mM EGTA, 0.02% Brij35, 0.02 mg/ml BSA, 0.1 mM Na3VO4, 2 mM DTT, 1% DMSO
To a freshly prepared buffer solution was added ROCK substrate Long S6 Kinase substrate peptide, with concentration at 20 μM. 1 nM ROCK kinase was then added, and well stirred. A series of DMSO solution (starting from 10 μM, dilution factor 3) of testing article was added using Echo550. The mixture was incubated for 20 min at room temperature, then was added ^33P-ATP (radioactive intensity 10 μCi/μL) to initiate reaction and further reacted for 2 h at room temperature. The mixture was filtered through P81 ion exchange paper (Whatman #3698-915), and washed by 0.75% phosphoric acid. The intensity of radiation was measured by Filter-Binding method.
The inhibition activity of the testing articles were measured by comparing the residue kinase activity to blank substrate (pure DMSO). Using Prism software ((GraphPad Software, San Diego Calif., USA) to calculate IC50 and curve.

| SMILES | IC50 | ROCK inhibition activity |
| --- | --- | --- |
| O=S(=O)(c1cccc2cncc(F)c12)N1C[C@H]2CNC[C@H]2C1 [Example 29, 4-fluoro-5-((hexahydropyrrolo[3,4-c]pyrrol-2(1H)-yl)sulfonyl)isoquinoline] | 100 to 1000 nM |  |
| O=S(=O)(c1cccc2cncc(F)c12)N1CC2CCCNC2C1 (stereo not shown) [Example 30, 4-fluoro-5-((hexahydro-1H-pyrrolo[3,4-b]pyridin-6(2H)-yl)sulfonyl)isoquinoline] | 100 to 1000 nM |  |
| O=S(=O)(c1cccc2cncc(C(F)F)c12)N1C[C@H]2CNC[C@H]2C1 [Example 35, 4-(difluoromethyl)-5-((hexahydropyrrolo[3,4-c]pyrrol-2(1H)-yl)sulfonyl)isoquinoline] |  | −− |
| O=S(=O)(c1cccc2cncc(C(F)F)c12)N1CC2CCNCC2C1 (stereo not shown) [Example 36, 4-(difluoromethyl)-5-((hexahydro-1H-pyrrolo[3,4-c]pyridin-2(3H)-yl)sulfonyl)isoquinoline] |  | −− |
| Cc1cncc2cccc(S(=O)(=O)N3C[C@@H]4CCN[C@@H]4C3)c12 [Example 38, 5-((hexahydropyrrolo[3,4-d]pyrrol-5 (1H)-yl)sulfonyl)-4-methylisoquinoline] | < 100 nM |  |
| Cc1cncc2cccc(S(=O)(=O)N3CCC4NCCCC43)c12 (stereo not shown) [Example 42, 4-methyl-5-((octahydro-1H-pyrrolo[3,2-b]pyridin-1-yl)sulfonyl)isoquinoline] | < 100 nM |  |
| Cc1cncc2cccc(S(=O)(=O)N3C[C@H]4CNC[C@H]4C3)c12 [Example 43, 5-((hexahydropyrrolo[3,4-c]pyrrol-2(1H)-yl)sulfonyl)-4-methylisoquinoline] | < 100 nM |  |
| Cc1cncc2cccc(S(=O)(=O)N3CC4CCNCC4C3)c12 (stereo not shown) [Example 44, 5-((hexahydro-1H-pyrrolo[3,4-c]pyridin-2(3H)-yl)sulfonyl)-4-methylisoquinoline] | < 100 nM |  |
| Cc1cncc2cccc(S(=O)(=O)N3CCC4NCCCC4C3)c12 (stereo not shown) [Example 45, 6-((4-methylisoquinolin-5-yl)sulfonyl)decahydro-1,6-naphthyridine] | 1000 to 5000 nM |  |
| COc1cncc2cccc(S(=O)(=O)N3CCC4NCCCC43)c12 (stereo not shown) [Example 51, 4-methoxy-5-((octahydro-1H-pyrrolo[3,2-b]pyridin-1-yl)sulfonyl)isoquinoline] | 1000 to 5000 nM |  |
| COc1cncc2cccc(S(=O)(=O)N3C[C@H]4CNC[C@H]4C3)c12 [Example 52, 5-((hexahydropyrrolo[3,4-c]pyrrol-2(1H)-yl)sulfonyl)-4-methoxyisoquinoline] | 1000 to 5000 nM |  |
| COc1cncc2cccc(S(=O)(=O)N3CC4CCNCC4C3)c12 (stereo not shown) [Example 53, 5-((hexahydro-1H-pyrrolo[3,4-c]pyridin-2(3H)-yl)sulfonyl)-4-methoxyisoquinoline] | 1000 to 5000 nM |  |
| COc1cncc2cccc(S(=O)(=O)N3CCC4NCCCC4C3)c12 (stereo not shown) [Example 54, 6-((4-methoxyisoquinolin-5-yl)sulfonyl)decahydro-1,6-naphthyridine] | 1000 to 5000 nM |  |
| NC12CCC1CN(S(=O)(=O)c1cccc3cnccc13)C2 (stereo not shown) [Example 55, 3-(isoquinolin-5-ylsulfonyl)-3-azabicyclo[3.2.0]heptan-1-amine] | 1000 to 5000 nM |  |
| NC12CC1CN(S(=O)(=O)c1cccc3cnccc13)C2 (stereo not shown) [Example 56, 3-(isoquinolin-5-ylsulfonyl)-3-azabicyclo[3.1.0]hexan-1-amine] | 100 to 1000 nM |  |
| CCNC12CC1CN(S(=O)(=O)c1cccc3cnccc13)C2 (stereo not shown) [Example 57, N-ethyl-3-(isoquinolin-5-ylsulfonyl)-3-azabicyclo[3.1.0]hexan-1-amine] | 1000 to 5000 nM |  |
